# Entries after “also recorded” stand apart in the source; their conditions may differ. No end group written: not given here.
# How the values were obtained:
# [1] = Cholesterol in animals supplemented with 20% sucrose, 30 days-treatment; type: in vivo, Wistar rats; conditions: Rimonabant (positive control, dose not given), after 30 days-treatment
# Method: (§1) Wistar rats fed with standard regimen supplemented with 20% sucrose were used in the drinking water during 60 days before and during the 30 days-treatment with SALINE (negative control), Rimonabant (positive control), Peptide 19 (Pep 19) in the concentration of 50 μg/Kg and Peptide 19 (Pep 19) in the concentration of 100 μg/Kg.
# [2] = Test in retroperitoneal adipose tissue, 3 days oral treatment; type: in vivo, Thin wistar rats; conditions: 100 ug/Kg, 3 days orally, vs Rimonabant and/or saline groups
# Method: (§2) Furthermore, in a treatment acute model (3 days of treatment orally in non-obese wistar rats) it was verified the brown adipose tissue activation, the retroperitoneal, inguinal and brown adipose tissues reduction, as well the adiposity ratio (FIGS. 4 to 9), effects not observed with Rimonabant.
# The measure of the adipose tissue was performed after finishing the treatment. The results are expressed by the retroperitoneal adipose tissue weight measured for treatment purpose (scale of g/100 g). Rats administered with vehicle (saline) were subject to the same protocol (control).
# [3] = Test in inguinal adipose tissue, 3 days oral treatment; type: in vivo, Thin wistar rats; conditions: 100 ug/Kg, 3 days orally, vs Rimonabant and/or saline groups
# Method: as §2
# The measure of the adipose tissue was performed after finishing the treatment. The results are expressed by the inguinal adipose tissue weight measured at the treatment end (scale of g/100 g). Rats administered with vehicle (saline) were subject to the same protocol (control).
# [4] = Test in brown adipose tissue, 3 days oral treatment; type: in vivo, Thin wistar rats
# Method: as §2
# The measure of the adipose tissue was performed after finishing the treatment. The results are expressed by the brown adipose tissue weight measured at the treatment end (scale of g/100 g). Rats administered with vehicle (saline) were subject to the same protocol (control).
# [5] = Glucose in animals supplemented with 20% sucrose, 30 days-treatment; type: in vivo, Winstar rats; conditions: Rimonabant (positive control, dose not given), 15th and 30th days of treatment
# Method: as §1, with “Winstar” for “Wistar”
# [6] = Adiposity ratio determination, 3 days oral treatment; type: in vivo, Thin wistar rats; conditions: 100 ug/Kg, 3 days orally, vs Rimonabant and/or saline groups
# Method: as §2
# Thin wistar rats were treated with a Rimonabant dosage (100 ug/Kg) or peptide 19 (Pep 19 100 ug/Kg) during 3 days orally. The measure of the adiposity ratio was performed after finishing the treatment using the formula (%), (I=Σ fat deposits/body weight×100). The results are expressed by the animal weight measured at the treatment end (scale of g/100 g). Rats administered with vehicle (saline) were subject to the same protocol (control).
# [7] = prior art statement; cited from earlier work
# [8] = Pain test: carrageenan-induced hyperalgesia, intraplantar administration; type: in vivo, Rats; conditions: 20 g by leg, immediately before carrageenan 200 g by leg, 0 h and 3 h
# Method: It was performed the comparative analysis of the peptide intraplantar administration over the carrageenan-induced hyperalgesia. Rats were treated with peptide ([…]) immediately before the carrageenan intraplantar administration ([…]) and were evaluated using a pressure apparatus […] (0 h and empty legs) and 3 h after administration of carrageenan (black legs).
# CB1 receptor [9] = target: CB1 receptor (Homo sapiens, UniProt P21554); conditions: disclosed in WO 2011/011847; cited from earlier work
# CB1 receptor (Homo sapiens, UniProt P21554), sequence (P21554 whole entry): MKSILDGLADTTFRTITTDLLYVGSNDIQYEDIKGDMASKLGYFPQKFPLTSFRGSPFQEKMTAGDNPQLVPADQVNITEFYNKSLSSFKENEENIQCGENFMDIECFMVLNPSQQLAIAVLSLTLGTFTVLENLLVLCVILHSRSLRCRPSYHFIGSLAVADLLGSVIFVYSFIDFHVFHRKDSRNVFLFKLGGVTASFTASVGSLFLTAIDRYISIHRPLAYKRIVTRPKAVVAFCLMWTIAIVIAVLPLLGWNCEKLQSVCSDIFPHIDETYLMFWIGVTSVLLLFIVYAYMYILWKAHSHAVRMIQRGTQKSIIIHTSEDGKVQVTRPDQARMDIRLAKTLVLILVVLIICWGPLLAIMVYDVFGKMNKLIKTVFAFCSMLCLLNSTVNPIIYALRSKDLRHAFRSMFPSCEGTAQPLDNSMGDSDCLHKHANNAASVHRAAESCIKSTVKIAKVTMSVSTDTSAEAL
# [10] = Activity on oral administration (statement, no separate method); type: in vivo, mammalian
# CB1 receptor [11] = assay: ELISA with striate membranes and anti-CB1 antibody, receptor activating percentage vs non-treated membrane; type: biochemical; conditions: 2 hours; for activity regarding the CB1 (receptor activating percentage regarding control): striate membranes 5 μg/pool, 1 μM of each drug, ambient temperature, variants compared with SeqID:1
# Method: (§3) The receptor activating percentage was calculated regarding the control, non-treated membrane (100%). […] Significant differences are indicated and p<0.05.
# [12] = Depression model (forced swim); type: in vivo; conditions: rats
# Method: The forced swim test was performed based on the previous tests ([Harkin et al., 2004], [Petit-Demouliere et al., 2005] and [Treit and Menard, 1998]).
# CB2 receptor = assay: ELISA with striate membranes for CB2 receptor, receptor activating percentage vs non-treated membrane; type: biochemical; conditions: striate membranes 5 μg/pool, 1 μM of each drug, 2 hours, ambient temperature
# Method: as §3
compound,measurement,setting,value
Cc1c(C(=O)NN2CCCCC2)nn(-c2ccc(Cl)cc2Cl)c1-c1ccc(Cl)cc1 [Rimonabant],cholesterol in % from SALINE animals,[1],lower cholesterol percentages
same,retroperitoneal adipose tissue mass,[2],not observed
same,inguinal adipose tissue mass,[3],not observed
same,brown adipose tissue mass,"[4]; 100 ug/Kg, 3 days orally, vs Rimonabant and/or saline groups",not observed
same,brown adipose tissue activation,[4]; 3 days of treatment orally in non-obese wistar rats,not observed
same,glycaemia,[5],lower glycaemia
same,adiposity ratio,[6],not observed
same,crossing the hematoencephalic barrier,[7],crossing the hematoencenphalic layer
CC(C)C[C@H](NC(=O)[C@H](Cc1ccccc1)NC(=O)[C@H](CCCCN)NC(=O)[C@H](Cc1ccccc1)NC(=O)[C@H](CC(N)=O)NC(=O)[C@@H](NC(=O)[C@@H]1CCCN1)C(C)C)C(=O)N[C@@H](CO)C(=O)N[C@@H](Cc1cnc[nH]1)C(=O)O [hemopressin],antihyperalgesic activity,[8],antihyperalgesic activity
same,binding to the CB1 receptor,CB1 receptor [9],binding efficiently
same,crossing the hematoencephalic barrier,[7],does not cross the hematoencephalic barrier
Cyclic Peptide -Asp-Ile-Ile-Ala-Asp-Asp-Glu-Pro-Leu-Thr- (DIIADDEPLT; cyclic; Artificial cyclic peptide modulator of cannabinoid receptors) [Modified peptide 6],activity when administered orally,[10],has activity even when orally administered
DIIADDAPLT [Modified peptide 3],activity regarding the CB1 (receptor activating percentage regarding control),CB1 receptor [11]; listed as SeqID:3,smaller activity
same,activity when administered orally,[10],has activity even when orally administered
DIIADDE [Modified peptide 4],activity regarding the CB1 (receptor activating percentage regarding control),CB1 receptor [11]; listed as SeqID:4,improved inverse agonist activity
same,activity when administered orally,[10],has activity even when orally administered
DIIADDEALT [Modified peptide 5],activity in CB1 / endocannabinoid receptors in high dosages,"CB1 receptor [11]; different dosages of drug, high dosages, listed as SeqID:5",agonist activity
same,activity in CB1 / endocannabinoid receptors in low dosages,"CB1 receptor [11]; different dosages of drug, low dosages, listed as SeqID:5",activity inverse agonist
same,activity when administered orally,[10],has activity even when orally administered
"DIIADDEPLT [Modified peptide 1, Asp-Ile-Ile-Ala-Asp-Asp-Glu-Pro-Leu-Thr]",depression in forced swim test (immobility time),[12],does not cause depression
DILADDEPLT [Modified peptide 2],activity in CB2 (receptor activating percentage regarding control),CB2 receptor; listed as SeqID:2,inverse agonist
same,activity when administered orally,[10],has activity even when administered orally
third amino acid of the SeqID:1 (isoleucine amino acid) was replaced for threonine: sequence wherein the third amino acid of the SeqID:1 (isoleucine) was replaced for threonine (DITADDEPLT; Artificial peptide modulator of cannabinoid receptors),activity regarding the CB1 (receptor activating percentage regarding control),CB1 receptor [11],biological activity loss; also recorded: have not demonstrated activity detectable
same,activity in CB2 (receptor activating percentage regarding control),CB2 receptor,have not demonstrated activity detectable

# — patent US9796760B2, “Modified peptide, CB receptor ligand, kit in vitro process for evaluating CB receptor bonds, uses, pharmaceutical composition for modulating CB receptor activity” (Proteimax Biotecnologia Ltda, priority 2012, dated 2017)
